Key:
Assay in all cases: KinaseProfiler kinase assay
Assay type in all cases: biochemical
CDK2/cyclinE(h) = CDK2/cyclinE(h) (Homo sapiens, UniProt P24941)
Outline: (§1)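 Steps: compound diluted from DMSO into MOPS/BSA assay buffer; MgATP mix with [γ-33P]ATP added to start; 40 min incubation at room temperature; phosphoric acid stop; filtermat spotting, washing in 50 mM phosphoric acid and methanol; scintillation counting.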

CDK3/cyclinE(h) = CDK3/cyclinE(h) (Homo sapiens, UniProt Q00526)
Outline: as §1

CaMKI(h) = CaMKI(h) (Homo sapiens, UniProt Q14012)
Outline: as §1

DAPK1(h) = DAPK1(h) (Homo sapiens, UniProt P53355)
Outline: as §1

EphA4(h) = EphA4(h) (Homo sapiens, UniProt P54764)
Outline: as §1

EphA5(h) = EphA5(h) (Homo sapiens, UniProt P54756)
Outline: as §1

FAK(h) = FAK(h) (Homo sapiens, UniProt Q05397)
Outline: as §1

Hck(h) activated = Hck(h) activated (Homo sapiens, UniProt P08631)
Outline: as §1

IKKβ(h) = IKKβ(h) (Homo sapiens, UniProt O14920)
Outline: as §1

MEK1(h) = MEK1(h) (Homo sapiens, UniProt Q02750)
Outline: as §1

MINK(h) = MINK(h) (Homo sapiens, UniProt Q8N4C8)
Outline: as §1

MSK2(h) = MSK2(h) (Homo sapiens, UniProt O75676)
Outline: as §1

MST1(h) = MST1(h) (Homo sapiens, UniProt Q13043)
Sequence of MST1(h) (Q13043 whole entry): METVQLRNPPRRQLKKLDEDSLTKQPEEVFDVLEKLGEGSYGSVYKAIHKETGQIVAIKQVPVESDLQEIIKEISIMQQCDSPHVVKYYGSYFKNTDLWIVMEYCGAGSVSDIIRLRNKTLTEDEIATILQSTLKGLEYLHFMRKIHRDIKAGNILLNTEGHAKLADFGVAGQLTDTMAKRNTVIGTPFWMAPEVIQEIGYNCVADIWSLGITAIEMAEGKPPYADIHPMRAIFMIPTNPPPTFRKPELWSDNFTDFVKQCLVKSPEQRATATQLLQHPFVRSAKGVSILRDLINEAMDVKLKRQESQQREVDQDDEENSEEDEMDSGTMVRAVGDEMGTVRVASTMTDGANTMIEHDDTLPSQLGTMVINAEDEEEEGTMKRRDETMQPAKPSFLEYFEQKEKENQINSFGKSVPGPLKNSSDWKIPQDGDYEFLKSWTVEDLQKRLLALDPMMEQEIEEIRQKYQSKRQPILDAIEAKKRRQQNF
Outline: as §1

Met(D1246H)(h) = Met(D1246H)(h) (Homo sapiens, UniProt P08581, D1228H)
Outline: as §1

PAK5(h) = PAK5(h) (Homo sapiens, UniProt Q9P286)
Outline: as §1

PDGFRα(h) = PDGFRα(h) (Homo sapiens, UniProt P16234)
Outline: as §1

[1] = target: PI3 Kinase (p110α(E542K)/p85α)(h) (Homo sapiens, UniProt P42336, E542K)
Outline: as §1

[2] = target: PI3 Kinase (p110α(E542K)/p85α)(m) (Mus musculus, UniProt P42337, E542K)
Sequence of PI3 Kinase (p110α(E542K)/p85α)(m) (P42337 whole entry E542K): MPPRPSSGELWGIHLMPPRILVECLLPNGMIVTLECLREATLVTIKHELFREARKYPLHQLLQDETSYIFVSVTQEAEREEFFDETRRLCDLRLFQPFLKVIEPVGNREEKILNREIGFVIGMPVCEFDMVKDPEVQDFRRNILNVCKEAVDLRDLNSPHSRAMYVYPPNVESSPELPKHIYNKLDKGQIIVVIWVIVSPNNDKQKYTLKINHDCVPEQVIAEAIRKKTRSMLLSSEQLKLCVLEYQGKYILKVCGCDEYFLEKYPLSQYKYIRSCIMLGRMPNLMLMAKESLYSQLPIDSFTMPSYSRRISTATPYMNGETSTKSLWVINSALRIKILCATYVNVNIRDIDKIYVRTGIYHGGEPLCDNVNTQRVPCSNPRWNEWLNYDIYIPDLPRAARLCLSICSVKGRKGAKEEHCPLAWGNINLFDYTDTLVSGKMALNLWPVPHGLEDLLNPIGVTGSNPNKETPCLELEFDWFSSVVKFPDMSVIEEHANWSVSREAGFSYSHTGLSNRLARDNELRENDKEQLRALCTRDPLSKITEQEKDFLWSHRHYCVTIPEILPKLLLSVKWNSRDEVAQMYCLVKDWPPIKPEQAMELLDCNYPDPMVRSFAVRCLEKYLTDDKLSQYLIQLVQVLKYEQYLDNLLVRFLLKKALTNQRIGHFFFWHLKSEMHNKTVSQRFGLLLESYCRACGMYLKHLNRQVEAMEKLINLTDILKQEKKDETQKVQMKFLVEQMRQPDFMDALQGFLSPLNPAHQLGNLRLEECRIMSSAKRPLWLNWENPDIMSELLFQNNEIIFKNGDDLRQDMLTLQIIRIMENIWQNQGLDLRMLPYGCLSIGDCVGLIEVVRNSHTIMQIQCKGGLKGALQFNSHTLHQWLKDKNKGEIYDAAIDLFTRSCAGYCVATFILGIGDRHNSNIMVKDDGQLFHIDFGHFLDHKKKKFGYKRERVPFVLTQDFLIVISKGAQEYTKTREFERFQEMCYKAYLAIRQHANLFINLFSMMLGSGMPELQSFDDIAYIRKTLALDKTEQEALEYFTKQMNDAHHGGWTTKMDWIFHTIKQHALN
Sequence of PI3 Kinase (p110α(E542K)/p85α)(m) (P26450 whole entry partner): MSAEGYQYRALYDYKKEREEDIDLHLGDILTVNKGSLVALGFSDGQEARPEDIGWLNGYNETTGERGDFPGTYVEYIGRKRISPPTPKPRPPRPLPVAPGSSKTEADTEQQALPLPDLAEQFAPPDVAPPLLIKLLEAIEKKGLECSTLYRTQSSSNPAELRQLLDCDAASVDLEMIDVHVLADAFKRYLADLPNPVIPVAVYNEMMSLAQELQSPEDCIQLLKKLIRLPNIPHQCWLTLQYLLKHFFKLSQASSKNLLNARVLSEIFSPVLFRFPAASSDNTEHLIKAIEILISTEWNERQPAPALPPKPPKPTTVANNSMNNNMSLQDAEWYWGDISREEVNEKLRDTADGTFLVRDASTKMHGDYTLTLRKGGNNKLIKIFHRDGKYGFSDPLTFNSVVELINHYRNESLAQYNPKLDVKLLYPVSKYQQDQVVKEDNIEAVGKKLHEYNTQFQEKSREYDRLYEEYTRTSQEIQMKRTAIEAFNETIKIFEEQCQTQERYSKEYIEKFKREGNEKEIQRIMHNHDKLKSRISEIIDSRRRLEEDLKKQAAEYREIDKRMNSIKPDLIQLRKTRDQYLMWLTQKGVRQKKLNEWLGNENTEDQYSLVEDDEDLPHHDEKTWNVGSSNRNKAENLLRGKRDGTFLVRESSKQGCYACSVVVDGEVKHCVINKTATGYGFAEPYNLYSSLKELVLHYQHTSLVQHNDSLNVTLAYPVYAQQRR
Outline: as §1

PKCδ(h) = PKCδ(h) (Homo sapiens, UniProt Q05655)
Outline: as §1

PKG1β(h) = PKG1β(h) (Homo sapiens, UniProt Q13976)
Outline: as §1

Pim-2(h) = Pim-2(h) (Homo sapiens, UniProt Q9P1W9)
Outline: as §1

RIPK2(h) = RIPK2(h) (Homo sapiens, UniProt O43353)
Outline: as §1

ROCK-II(h) = ROCK-II(h) (Homo sapiens, UniProt O75116)
Outline: as §1

ROCK-II(r) = ROCK-II(r) (Rattus norvegicus, UniProt Q62868)
Outline: as §1

SAPK2a(h) = SAPK2a(h) (Homo sapiens, UniProt Q16539)
Outline: as §1

SGK(h) = SGK(h) (Homo sapiens, UniProt O00141)
Outline: as §1

ULK2(h) = ULK2(h) (Homo sapiens, UniProt Q8IYT8)
Sequence of ULK2(h) (Q8IYT8 whole entry): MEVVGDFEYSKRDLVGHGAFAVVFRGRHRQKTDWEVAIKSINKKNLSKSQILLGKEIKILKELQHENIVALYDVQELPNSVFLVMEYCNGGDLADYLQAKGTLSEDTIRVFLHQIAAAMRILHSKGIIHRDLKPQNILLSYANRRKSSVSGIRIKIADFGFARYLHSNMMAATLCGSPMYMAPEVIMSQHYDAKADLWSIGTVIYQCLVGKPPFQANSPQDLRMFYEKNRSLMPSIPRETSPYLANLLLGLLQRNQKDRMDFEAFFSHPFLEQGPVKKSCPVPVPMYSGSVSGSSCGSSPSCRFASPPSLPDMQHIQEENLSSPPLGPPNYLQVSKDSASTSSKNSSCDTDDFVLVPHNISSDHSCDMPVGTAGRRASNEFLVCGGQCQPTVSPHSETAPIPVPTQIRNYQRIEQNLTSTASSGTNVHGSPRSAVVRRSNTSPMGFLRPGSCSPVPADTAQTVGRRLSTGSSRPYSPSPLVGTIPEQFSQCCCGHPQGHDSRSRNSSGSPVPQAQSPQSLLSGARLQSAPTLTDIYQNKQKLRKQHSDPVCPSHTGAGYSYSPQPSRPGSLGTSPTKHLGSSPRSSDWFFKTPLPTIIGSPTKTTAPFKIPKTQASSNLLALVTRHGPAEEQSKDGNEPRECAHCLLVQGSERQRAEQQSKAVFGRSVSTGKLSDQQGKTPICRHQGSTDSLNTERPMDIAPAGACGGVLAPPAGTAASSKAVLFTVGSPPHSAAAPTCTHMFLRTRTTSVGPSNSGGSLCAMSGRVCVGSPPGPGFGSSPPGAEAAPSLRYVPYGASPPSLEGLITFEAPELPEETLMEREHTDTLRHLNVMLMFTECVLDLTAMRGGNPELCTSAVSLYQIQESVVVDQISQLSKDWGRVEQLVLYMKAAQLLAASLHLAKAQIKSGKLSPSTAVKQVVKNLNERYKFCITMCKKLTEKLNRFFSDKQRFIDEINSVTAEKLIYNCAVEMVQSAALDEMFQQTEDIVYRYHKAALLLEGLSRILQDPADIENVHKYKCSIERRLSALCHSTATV
Outline: as §1

WNK3(h) = WNK3(h) (Homo sapiens, UniProt Q9BYP7)
Sequence of WNK3(h) (Q9BYP7 whole entry): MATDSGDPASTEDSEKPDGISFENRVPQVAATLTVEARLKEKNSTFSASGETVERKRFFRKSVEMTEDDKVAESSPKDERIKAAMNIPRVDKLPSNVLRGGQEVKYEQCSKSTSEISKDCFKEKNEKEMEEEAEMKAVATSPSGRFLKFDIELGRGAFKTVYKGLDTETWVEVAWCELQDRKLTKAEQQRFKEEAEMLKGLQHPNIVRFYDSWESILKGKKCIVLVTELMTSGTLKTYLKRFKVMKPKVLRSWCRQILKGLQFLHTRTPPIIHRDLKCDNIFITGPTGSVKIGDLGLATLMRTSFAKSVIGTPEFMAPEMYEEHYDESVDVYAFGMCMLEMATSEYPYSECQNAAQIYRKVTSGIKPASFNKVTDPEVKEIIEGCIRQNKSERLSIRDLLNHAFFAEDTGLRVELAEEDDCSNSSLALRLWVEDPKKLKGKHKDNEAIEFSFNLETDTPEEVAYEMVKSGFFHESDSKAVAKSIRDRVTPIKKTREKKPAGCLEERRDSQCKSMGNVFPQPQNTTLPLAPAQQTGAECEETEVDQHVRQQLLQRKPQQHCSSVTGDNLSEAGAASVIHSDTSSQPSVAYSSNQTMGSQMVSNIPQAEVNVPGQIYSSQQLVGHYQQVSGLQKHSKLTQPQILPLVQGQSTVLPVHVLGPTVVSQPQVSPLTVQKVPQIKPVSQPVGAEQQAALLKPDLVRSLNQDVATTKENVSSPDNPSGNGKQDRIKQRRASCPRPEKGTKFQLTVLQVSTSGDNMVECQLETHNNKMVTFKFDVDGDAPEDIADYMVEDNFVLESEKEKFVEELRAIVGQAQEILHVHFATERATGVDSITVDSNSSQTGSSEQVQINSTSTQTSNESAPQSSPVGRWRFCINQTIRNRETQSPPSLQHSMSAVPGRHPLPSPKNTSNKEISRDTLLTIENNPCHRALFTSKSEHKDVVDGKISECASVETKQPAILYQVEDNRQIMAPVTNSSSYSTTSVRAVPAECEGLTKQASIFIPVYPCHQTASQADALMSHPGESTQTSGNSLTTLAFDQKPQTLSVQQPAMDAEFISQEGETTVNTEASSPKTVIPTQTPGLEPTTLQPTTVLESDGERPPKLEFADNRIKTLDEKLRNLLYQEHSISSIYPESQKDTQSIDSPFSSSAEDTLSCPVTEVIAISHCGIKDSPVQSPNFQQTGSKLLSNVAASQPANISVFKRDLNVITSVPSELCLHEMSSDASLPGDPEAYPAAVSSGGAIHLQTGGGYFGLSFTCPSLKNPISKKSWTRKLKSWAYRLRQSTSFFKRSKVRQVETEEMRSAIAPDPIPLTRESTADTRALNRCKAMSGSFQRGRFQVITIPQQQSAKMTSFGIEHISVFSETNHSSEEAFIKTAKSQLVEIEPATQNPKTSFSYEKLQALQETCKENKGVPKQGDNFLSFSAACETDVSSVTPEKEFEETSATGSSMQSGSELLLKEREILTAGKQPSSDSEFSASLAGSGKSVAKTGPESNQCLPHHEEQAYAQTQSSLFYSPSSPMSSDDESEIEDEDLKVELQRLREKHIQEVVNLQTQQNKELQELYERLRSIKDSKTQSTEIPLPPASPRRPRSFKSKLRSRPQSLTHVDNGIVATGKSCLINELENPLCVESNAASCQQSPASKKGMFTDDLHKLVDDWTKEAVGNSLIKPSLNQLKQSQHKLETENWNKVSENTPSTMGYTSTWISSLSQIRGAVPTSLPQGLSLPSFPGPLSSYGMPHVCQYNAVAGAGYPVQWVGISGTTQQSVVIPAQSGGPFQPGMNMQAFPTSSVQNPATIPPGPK
Outline: as §1

ZAP-70(h) = ZAP-70(h) (Homo sapiens, UniProt P43403)
Outline: as §1

cKit(V654A)(h) = cKit(V654A)(h) (Homo sapiens, UniProt P10721, V654A)
Outline: as §1

cKit(h) = cKit(h) (Homo sapiens, UniProt P10721)
Outline: as §1

SMILES | inhibition at 0.1 µM (CDK2/cyclinE(h)) [%] | inhibition at 0.1 µM (CDK3/cyclinE(h)) [%] | inhibition at 0.1 µM (CaMKI(h)) [%] | inhibition at 0.1 µM (DAPK1(h)) [%] | inhibition at 0.1 µM (EphA4(h)) [%] | inhibition at 0.1 µM (EphA5(h)) [%] | inhibition at 0.1 µM (FAK(h)) [%] | inhibition at 0.1 µM (Hck(h) activated) [%] | inhibition at 0.1 µM (IKKβ(h)) [%] | inhibition at 0.1 µM (MEK1(h)) [%] | inhibition at 0.1 µM (MINK(h)) [%] | inhibition at 0.1 µM (MSK2(h)) [%] | inhibition at 0.1 µM (MST1(h)) [%] | inhibition at 0.1 µM (Met(D1246H)(h)) [%] | inhibition at 0.1 µM (PAK5(h)) [%] | inhibition at 0.1 µM (PDGFRα(h)) [%] | inhibition at 0.1 µM [1] [%] | inhibition at 0.1 µM [2] [%] | inhibition at 0.1 µM (PKCδ(h)) [%] | inhibition at 0.1 µM (PKG1β(h)) [%] | further results
Cc1cc2c(F)c(Oc3nc(Nc4cc(C5CC5)[nH]n4)cc(N4CCN(C)CC4)n3)ccc2[nH]1 [Compound 10] | 1 | 0 | 2 | 0 | 52 | 76 | 22 | 90 | 1 | 14 | 7 | -7 | 78 | 74 | 60 | -3 | -1 | 1 | 5 | -11 | inhibition at 0.1 µM (Pim-2(h)): -25%; inhibition at 0.1 µM (RIPK2(h)): 1%; inhibition at 0.1 µM (ROCK-II(h)): 11%; inhibition at 0.1 µM (ROCK-II(r)): 13%; inhibition at 0.1 µM (SAPK2a(h)): 10%; inhibition at 0.1 µM (SGK(h)): -38%; inhibition at 0.1 µM (ULK2(h)): 37%; inhibition at 0.1 µM (WNK3(h)): 1%; inhibition at 0.1 µM (ZAP-70(h)): 3%; inhibition at 0.1 µM (cKit(V654A)(h)): 35%; inhibition at 0.1 µM (cKit(h)): 0%
Cc1cc2c(F)c(Oc3nc(Nc4cc(C5CC5)[nH]n4)cc(N4CCNCC4)n3)ccc2[nH]1 [Compound 11, N-(5-cyclopropyl-1H-pyrazol-3-yl)-2-((4-fluoro-2-methyl-1H-indol-5-yl)oxy)-6-(piperazin-1-yl)pyrimidin-4-amine] | 3 | 33 | 7 | 3 | 47 | 81 | 22 | 84 | 5 | 1 | 31 | -5 | 74 | 93 | 68 | 29 | 0 | 1 | 5 | -2 | inhibition at 0.1 µM (Pim-2(h)): 17%; inhibition at 0.1 µM (RIPK2(h)): 13%; inhibition at 0.1 µM (ROCK-II(h)): 3%; inhibition at 0.1 µM (ROCK-II(r)): 16%; inhibition at 0.1 µM (SAPK2a(h)): -7%; inhibition at 0.1 µM (SGK(h)): -19%; inhibition at 0.1 µM (ULK2(h)): 30%; inhibition at 0.1 µM (WNK3(h)): 8%; inhibition at 0.1 µM (ZAP-70(h)): -13%; inhibition at 0.1 µM (cKit(V654A)(h)): 53%; inhibition at 0.1 µM (cKit(h)): 24%

Source: US10245261B2, “Substituted indol-5-ol derivatives and their therapeutic applications” (NantBioScience, Inc., priority 2013, dated 2019)
